# Laboratory results as given in ChEMBL document CHEMBL3244140, “Folate antagonists. 12. Antimalarial and antibacterial effects of 2,4-diamino-6-[(aralkyl and alicyclid)thio-, sulfinyl-, and sulfonyl]quinazolines” (J Med Chem, 1978).
# Active and inactive are the calls of the source. No cut-off for these calls is given here.
# Experiments:
# Plasmodium berghei [1] = test: Antiplasmodial activity against drug-sensitive Plasmodium berghei infected in mouse assessed as change in mean survival time at 80 mg/kg, sc administered as single dose 72 hrs post infection; type: functional; conditions: route subcutaneous
# Shigella sonnei = test: Antibacterial activity against Shigella sonnei C-10 by Gradient plate test; type: functional, organism-based
# Plasmodium berghei [2] = test: Antiplasmodial activity against drug-sensitive Plasmodium berghei infected in mouse assessed as change in mean survival time at 40 mg/kg, sc administered as single dose 72 hrs post infection; type: functional; conditions: route subcutaneous
# Staphylococcus aureus [3] = test: Antibacterial activity against drug-resistant Staphylococcus aureus S18713 assessed as growth inhibition by Gradient plate test; type: functional
# Pseudomonas aeruginosa = test: Antibacterial activity against Pseudomonas aeruginosa 28 by Gradient plate test; type: functional, organism-based
# Plasmodium berghei [4] = test: Antiplasmodial activity against drug-sensitive Plasmodium berghei infected in mouse assessed as change in mean survival time at 160 mg/kg, sc administered as single dose 72 hrs post infection; type: functional; conditions: route subcutaneous
# Plasmodium berghei [5] = test: Antiplasmodial activity against drug-sensitive Plasmodium berghei infected in mouse assessed as change in mean survival time at 20 mg/kg, sc administered as single dose 72 hrs post infection; type: functional; conditions: route subcutaneous
# Plasmodium berghei [6] = test: Antiplasmodial activity against drug-sensitive Plasmodium berghei infected in mouse assessed as cure from infection at 640 mg/kg, sc administered as single dose 72 hrs post infection measured 60 days postinfection; type: functional, organism-based; set-up: dose 640 mg/kg
# Enterococcus faecalis = test: Antibacterial activity against Streptococcus faecalis MGH2 assessed as growth inhibition by Gradient plate test; type: functional
# Plasmodium berghei [7] = test: Antiplasmodial activity against drug-sensitive Plasmodium berghei infected in mouse assessed as change in mean survival time at 320 mg/kg, sc administered as single dose 72 hrs post infection measured 60 days postinfection; type: functional; conditions: route subcutaneous
# Escherichia coli = test: Antibacterial activity against Escherichia coli Vogel by Gradient plate test; type: functional, organism-based
# Staphylococcus aureus [8] = test: Antibacterial activity against Staphylococcus aureus UC-76 assessed as growth inhibition by Gradient plate test; type: functional
# Plasmodium berghei [9] = test: Antiplasmodial activity against drug-sensitive Plasmodium berghei infected in mouse assessed as change in mean survival time at 640 mg/kg, sc administered as single dose 72 hrs post infection; type: functional; conditions: route subcutaneous
# Mus musculus [10] = test: Toxicity in drug-sensitive Plasmodium berghei infected mouse at 640 mg/kg, sc administered as single dose 72 hrs post infection […]; type: organism-based; set-up: dose 640 mg/kg, route subcutaneous; conditions: in vivo
# Plasmodium berghei [11] = test: Antiplasmodial activity against drug-sensitive Plasmodium berghei infected in mouse assessed as cure from infection at 160 mg/kg, sc administered as single dose 72 hrs post infection measured 60 days postinfection; type: functional, organism-based; set-up: dose 160 mg/kg
# Mus musculus [12] = test: Toxicity in drug-sensitive Plasmodium berghei infected mouse at 320 mg/kg, sc administered as single dose 72 hrs post infection measured 2 to 5 days postinfection; type: organism-based; set-up: dose 320 mg/kg, route subcutaneous; conditions: in vivo
# Plasmodium berghei [13] = test: Antiplasmodial activity against drug-sensitive Plasmodium berghei infected in mouse assessed as cure from infection at 320 mg/kg, sc administered as single dose 72 hrs post infection measured 60 days postinfection; type: functional, organism-based; set-up: dose 320 mg/kg
Structure (SMILES),MSD (Plasmodium berghei [1]),Activity (Shigella sonnei),MSD (Plasmodium berghei [2]),MIC (Staphylococcus aureus [3]),Activity (Pseudomonas aeruginosa),MSD (Plasmodium berghei [4]),MSD (Plasmodium berghei [5]),Activity (Plasmodium berghei [6]),MIC (Enterococcus faecalis),MSD (Plasmodium berghei [7]),Activity (Escherichia coli),MIC (Staphylococcus aureus [8]),MSD (Plasmodium berghei [9]),Activity (Mus musculus [10]),Activity (Plasmodium berghei [11]),Activity (Mus musculus [12]),Activity (Plasmodium berghei [13])
Nc1nc(N)c2cc(SC3CCCCC3)ccc2n1,5.7 days,inactive,2.5 days,10 µg/mL,inactive,9.1 days,0.7 days,Active,10 µg/mL,12.9 days,inactive,< 0.25 µg/mL,,,,,
Nc1nc(N)c2cc(OCc3ccc(Cl)cc3)ccc2n1,3.6 days,,1.7 days,,,7.2 days,1.2 days,,,11.2 days,,,13.3 days,,,,
Nc1nc(N)c2c(Cl)c([S+]([O-])Cc3ccc(Cl)cc3)ccc2n1 (stereo unspecified),,inactive,0.1 days,> 25 µg/mL,inactive,0.3 days,,,< 0.25 µg/mL,,inactive,> 25 µg/mL,0.3 days,,,,
CC1(C)N=C(N)N=C(N)N1c1ccc(Cl)cc1.Cl [CHLORCYCLOGUANIL HYDROCHLORIDE],21.6 days,,13.4 days,,,,7.9 days,,,,,,,Toxic,Active,Toxic,
Nc1nc(N)c2cc([S+]([O-])Cc3ccc(Cl)cc3)ccc2n1 (stereo unspecified),0.7 days,inactive,0.5 days,> 25 µg/mL,inactive,0.9 days,0.3 days,,> 25 µg/mL,2.9 days,inactive,25 µg/mL,5.9 days,,,,
Nc1nc(N)c2c(Cl)c(S(=O)(=O)Cc3ccc(Cl)cc3)ccc2n1,,inactive,0.1 days,10 µg/mL,inactive,0.1 days,,,< 0.25 µg/mL,,inactive,5 µg/mL,0.1 days,,,,
COc1cc(Cc2cnc(N)nc2N)cc(OC)c1OC [TRIMETHOPRIM],,inactive,,< 0.25 µg/mL,inactive,,,,< 0.25 µg/mL,,inactive,< 0.25 µg/mL,,,,,
Nc1nc(N)c2c(Cl)c(SCc3ccc(Cl)cc3)ccc2n1,1.1 days,,0.5 days,,,1.7 days,0.5 days,,,3.1 days,,,7.9 days,,,,
Nc1nc(N)c2cc(SCc3ccccc3)ccc2n1,0.9 days,,0.5 days,,,1.1 days,0.5 days,,,4.9 days,,,10.7 days,,,,
CC(Sc1ccc2nc(N)nc(N)c2c1)c1ccc(Cl)cc1 (stereo unspecified),9.6 days,inactive,5.7 days,1 µg/mL,inactive,10.9 days,3.7 days,Active,< 0.25 µg/mL,17 days,inactive,< 0.25 µg/mL,,,,,
Nc1nc(N)c2cc(SC34CC5CC(CC(C5)C3)C4)ccc2n1,0.3 days,inactive,0.3 days,< 0.25 µg/mL,inactive,0.3 days,0.1 days,,< 0.25 µg/mL,1.1 days,inactive,< 0.25 µg/mL,10.7 days,,,,
CC(=O)O.Nc1nc(N)c2cc(NCc3ccc(Cl)c(Cl)c3)ccc2n1,12.9 days,,7.1 days,,,9.9 days,2.5 days,Active,,,,,,,,,Active
Nc1nc(N)c2cc(SCCc3ccccc3)ccc2n1,0.9 days,,0.5 days,,,4.5 days,0.5 days,,,17.2 days,,,,,,,
Nc1nc(N)c2cc(SCc3ccc(Cl)cc3)ccc2n1,2.6 days,inactive,0.8 days,< 0.25 µg/mL,inactive,4.2 days,0.4 days,,< 0.25 µg/mL,9.8 days,inactive,< 0.25 µg/mL,17.3 days,,,,
Nc1nc(N)c2cc(S(=O)(=O)Cc3ccc(Cl)cc3)ccc2n1,0.3 days,inactive,0.1 days,> 25 µg/mL,inactive,0.3 days,0.1 days,,> 25 µg/mL,0.9 days,inactive,> 25 µg/mL,5.9 days,,,,
